BigSolDB 2.1

Clc1cc(Cl)cc(Cl)c1
solubility (mole fraction)
Settings | in acetone | in cyclohexane | in ethyl acetate | in isobutanol | in isopropanol | in n-butanol | in n-propanol | in toluene
273.15 K | 0.0419 | – | 0.0928 | 0.0246 | 0.0144 | 0.036 | 0.0211 | 0.169
275.65 K | 0.0472 | – | 0.102 | 0.028 | 0.0167 | 0.0406 | 0.0238 | 0.184
278.15 K | 0.0524 | – | 0.113 | 0.0321 | 0.0195 | 0.0467 | 0.0273 | 0.199
280.65 K | 0.0581 | 0.131 | 0.123 | 0.0367 | 0.0225 | 0.0529 | 0.0313 | 0.218
283.15 K | 0.0644 | 0.147 | 0.137 | 0.042 | 0.0256 | 0.0592 | 0.0359 | 0.24
285.65 K | 0.0718 | 0.165 | 0.151 | 0.0478 | 0.0297 | 0.0679 | 0.0406 | 0.26
288.15 K | 0.079 | 0.186 | 0.164 | 0.0545 | 0.0339 | 0.0767 | 0.0466 | 0.287
290.65 K | 0.0876 | 0.207 | 0.179 | 0.0616 | 0.0384 | 0.0852 | 0.0532 | 0.311
293.15 K | 0.0963 | 0.231 | 0.195 | 0.0708 | 0.0441 | 0.0969 | 0.0598 | 0.337
295.65 K | 0.106 | 0.255 | 0.213 | 0.0804 | 0.0509 | 0.107 | 0.0677 | 0.368
298.15 K | 0.116 | 0.286 | 0.234 | 0.091 | 0.058 | 0.122 | 0.0764 | 0.399
300.65 K | 0.129 | 0.318 | 0.253 | 0.102 | 0.0649 | 0.136 | 0.0853 | 0.427
303.15 K | 0.14 | 0.35 | 0.274 | 0.117 | 0.074 | 0.15 | 0.0973 | 0.463
305.65 K | 0.154 | 0.391 | 0.298 | 0.131 | 0.0849 | 0.166 | 0.109 | 0.5
308.15 K | 0.171 | 0.434 | 0.325 | 0.147 | 0.0969 | 0.185 | 0.122 | 0.539
310.65 K | 0.192 | 0.481 | 0.352 | 0.166 | 0.11 | 0.207 | 0.138 | 0.575
313.15 K | 0.213 | 0.528 | 0.38 | 0.191 | 0.127 | 0.233 | 0.158 | 0.619
